In the assay the target is T1, GRK5 (Homo sapiens, UniProt P34947).
T1 construct: purchased Thermo Fisher Scientific (Life Technologies) SelectScreen
The assay can be described thus: SelectScreen Z'LYTE. The class given is biochemical. An outline of the steps:
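Compound tested in SelectScreen activity assays, Z'LYTE for CSF1R, CDK1/cyclin B and MAP2K6 and Adapta for CAMK1. ATP for CAMK1 was listed as 10, and Km app was used for CSF1R. Results are expressed in percent.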

As a reminder, the inhibition is the change of the read-out against control, counted positive when it falls.

T1 sequence (P34947 whole entry): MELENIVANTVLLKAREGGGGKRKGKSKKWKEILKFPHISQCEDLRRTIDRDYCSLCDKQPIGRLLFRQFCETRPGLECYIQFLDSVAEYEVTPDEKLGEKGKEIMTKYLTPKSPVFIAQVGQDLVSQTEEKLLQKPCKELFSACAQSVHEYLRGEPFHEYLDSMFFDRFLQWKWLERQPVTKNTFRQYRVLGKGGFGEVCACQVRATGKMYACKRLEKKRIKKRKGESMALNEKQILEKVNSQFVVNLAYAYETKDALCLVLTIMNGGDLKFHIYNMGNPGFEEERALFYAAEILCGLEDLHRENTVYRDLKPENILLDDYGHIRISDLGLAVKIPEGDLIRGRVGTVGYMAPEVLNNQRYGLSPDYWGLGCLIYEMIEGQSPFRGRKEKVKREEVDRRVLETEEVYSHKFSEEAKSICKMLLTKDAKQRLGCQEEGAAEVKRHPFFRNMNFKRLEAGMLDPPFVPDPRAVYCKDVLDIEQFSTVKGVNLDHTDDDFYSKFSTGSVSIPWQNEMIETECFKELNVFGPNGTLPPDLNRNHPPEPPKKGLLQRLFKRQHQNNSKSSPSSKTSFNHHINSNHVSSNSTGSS

For the compound `CN(C(=O)CN1CCOCC1)c1ccc2sc3c(-c4cccc5c(=O)cc(N6CC7CCC(C6)O7)oc45)cccc3c2c1` [NU5455], the inhibition at 1 µM is -3.2%.

Values taken from publication PMC6934184, “Selective DNA-PKcs inhibition extends the therapeutic index of localized radiotherapy and chemotherapy” (The Journal of Clinical Investigation, 2019).
